In US4552882A, “7-(1-Pyrrolyl) derivatives of 1-ethyl-1,4-dihydro-4-oxoquinoline-3-carboxylic acids and 1-ethyl-1,4-dihydro-4-oxo-1,8-naphthyridine-3-carboxylic acids and their use as antimicrobial agents” (Provesan, SA, priority 1983, dated 1985):
Converted amounts (≈) assume the structure as drawn.

Experiments:
Test in all cases: MIC in vitro
Type in all cases: cell-based
[1] = system: Proteus morganii CHSP 16; settings: Morganella morganii, CHSP16, Dextrose agar, 37° C., 20 hours
Method: (§1) (G. L. Daquet and Y. A. Chabbect, Techniques en bacteriologie (Bacteriological techniques), vol. 3, Flammarion Medecine Sciences, Paris, 1972 and W. B. Hugo and A. D. Rusell, Pharmaceutical Microbiology, Blackwell Scientific Publications, London, (1977)). Antibiotic medium no. 1 (seed agar) (Oxoid CM 327) Tryptone-soya broth (Oxoid CM 129) Ringer's physiological solution 1/4 (oxoid BR 52) Dextrose agar (BBL-11165) 0.1 N NaOH "Proteus morganii" CHSP 16 Each of the microorganisms is seeded by streaking in tubes of Antibiotic medium No. 1 (seed agar), which are then incubated at 37° C. for 20 hours. Using a culture loop, the cultures are then seeded in tryptone-soyabroth and incubated at 37° C. for 20 hours. The culture obtained is diluted to 1/4 with Ringer's physiological solution, so as to obtain a standardized suspension of 10^7 -10^9 cfu/ml for each organism. Starting from a solution of 1,000 μg/ml in 0.1 N NaOH, each product is diluted in Dextrose agar (previously melted and maintained at 50° C.), with successive dilutions so as to obtain the following concentrations: 64--32--16--8--4--2--1--0.5--0.25--0.125 μg of derivative/ml medium. For each product, the solution of each concentration is subsequently distributed into Petri dishes 10 cm in diameter, with 10 ml of medium per dish and the same number of dishes as microorganisms to be tested. As soon as the medium has cooled, the dishes are seeded with the inoculations using 0.4 ml of inoculation per dish. They are spread with a Driglasky loop and the supernatant is removed. The seeded dishes are incubated at 37° C. for 20 hours.

[2] = system: Sarcina lutea ATCC 9341; settings: Micrococcus luteus, ATCC9341, Dextrose agar, 37° C., 20 hours
Method: as §1, with “"Sarcina Lutea" ATCC 9341” for “"Proteus morganii" CHSP 16”

[3] = system: Micrococus flavus ATCC 10240; settings: Micrococcus flavus, ATCC10240, Dextrose agar, 37° C., 20 hours
Method: as §1, with “"Micrococcus flavus" ATCC 10240” for “"Proteus morganii" CHSP 16”

SMILES | MIC [1] | MIC [2] | MIC [3]
CCn1cc(C(=O)O)c(=O)c2ccc(-n3cccc3)cc21 [Example 1, 7-(1-pyrrolyl)-1-ethyl-1,4-dihydro-4-oxo-3-quinolinecarboxylic acid] | 8 µg/mL (≈ 28.3 µM) | 16 µg/mL (≈ 56.7 µM) | 16 µg/mL (≈ 56.7 µM)
CCn1cc(C(=O)O)c(=O)c2cc(F)c(-n3cccc3)cc21 [Example 2, 6-fluoro-7-(1-pyrrolyl)-1-ethyl-1,4-dihydro-4-oxo-3-quinolinecarboxylic acid] | 2 µg/mL (≈ 6.66 µM) | 16 µg/mL (≈ 53.3 µM) | 8 µg/mL (≈ 26.6 µM)
CCn1cc(C(=O)O)c(=O)c2ccc(-n3cccc3)nc21 [Example 3, 1-ethyl-1,4-dihydro-4-oxo-7-(1-pyrrolyl)-1,8-naphthyridine-3-carboxylic acid] | 8 µg/mL (≈ 28.2 µM) | 8 µg/mL (≈ 28.2 µM) | 4 µg/mL (≈ 14.1 µM)
CCn1cc(C(=O)O)c(=O)c2cc(F)c(-n3cccc3)nc21 [Example 4, 1-ethyl-1,4-dihydro-4-oxo-6-fluoro-7-(1-pyrrolyl)-1,8-naphthyridine-3-carboxylic acid] | 4 µg/mL (≈ 13.3 µM) | 4 µg/mL (≈ 13.3 µM) | 1 µg/mL (≈ 3.32 µM)
CCn1cc(C(=O)O)c(=O)c2cnc(N3CCNCC3)nc21 [Pipemidic acid, reference compound] | 8 µg/mL (≈ 26.4 µM) | > 64 µg/mL | > 64 µg/mL
